Measurements from US12144795B2, “Cannabidiol compositions having modified cannabinoid profiles” (priority 2018, dated 2024).
In brackets after ≈: the same amount, converted by molar mass. Like-named read-outs stand apart in the source and are kept apart here.

Legend:
[1] = Crystallization by single solvent drop grinding, HT-XRPD before and after AAC; assay type: physicochemical
Experimental: For the grinding experiments, 40 mg cannabidiol was placed in a stainless steel container with 10 μL solvent and two steel beads. The vials were shaken for 1 hour at 30 Hz, after which the solids were collected for XRPD analysis. All of the samples were classified as Form A based on HT-XRPD analysis.

[2] = Evaporative crystallization from solvent mixtures, form by HT-XRPD before and after AAC; assay type: physicochemical; settings: Acetonitrile / Water (50/50, v/v)
Experimental: Recrystallization experiments were conducted to screen for potential CBD polymorphs and evaluate the ability of the recrystallized CBD to expel impurities. The following recrystallization methods were undertaken: • evaporative crystallization from solvent mixtures; • antisolvent crystallization; • cooling crystallization; • single solvent drop grinding; • crystallization by crash-cooling; • vapor-diffusion-into-solution crystallization; and • crystallization by liquid diffusion. In each method, the starting material consisted of crystallized CBD of form A. Evaporative Crystallization from Solvent Mixtures
Without wishing to be bound by theory, the general principle behind evaporative crystallization using solvent anti-solvent mixtures is that the solvent evaporates, first causing the API to precipitate to some extent, and this material then acts as a seed, when the anti-solvent is evaporated. The first evaporation step is slow and is followed by a faster final evaporation phase. All crystalline samples were Form A both before and after the solids were exposed to accelerated ageing conditions. An oil-like substance was obtained from an acetonitrile/water solvent mixture that could not be analyzed by XRPD; therefore, this sample was not exposed to accelerated aging conditions.

[3] = Cannabidiol solubility in neat solvents and mixtures, isooctane solubility curve; assay type: physicochemical; settings: for solubility: read-out: Solubility at RT
Excerpt: Isooctane was selected as the final crystallization solvent due the low solubility and similar properties to heptane, i.e., low viscosity and boiling point relative to other higher hydrocarbons (Table 33). Based on the solubility and desire to maximize yield, an isooctane volume of 4.0 L/kg was selected as an appropriate crystallization concentration. Prior to crystallization, it was desired to fully dissolve the CBD in isooctane and filter the process stream. […] The isolation temperature of −20° C. was chosen to maximize the yield of the CBD from the final crystallization.

[4] = assay type: physicochemical
[5] = Crash cooling crystallization, XRPD before and after AAC; assay type: physicochemical; settings: for Dissolved at start / Solids after T profile / Solid form by HT-XRPD Evaporation of ML Before: 50 mg/mL
Experimental: As a variation on the above cooling crystallization experiments, several crash cooling crystallization were performed. In order to modulate the solubility of cannabidiol, crash cooling experiments were performed in solvent mixtures. Clear solutions of 50 mg/mL of cannabidiol were prepared in solvent mixtures and rapidly cooled in an ice bath. Vials were then placed at −20° C. for 48 hours. Precipitated solids and mother liquors were treated as described above for the ordinary cooling crystallization experiments. Only from heptane/pentane cooling did there result in the precipitation of a solid. […] When no XRPD record was generated, the field is defined as “Not Applicable” (N/A) in Table 29.

[6] = 1 month Accelerated 40° C./75% RH
[7] = 1.5 months Accelerated 40° C./75% RH
[8] = 2 months Accelerated 40° C./75% RH
[9] = 3 months Accelerated 40° C./75% RH
[10] = 5 months Accelerated 40° C./75% RH
[11] = 6 months Accelerated 40° C./75% RH

## C=C(C)[C@@H]1CCC(C)=C[C@H]1c1c(O)cc(CCCCC)cc1O [CBD, (1′R,2′R)-5′-methyl-4-pentyl-2′-(prop-1-en-2-yl)-1′,2′,3′,4′-tetrahydro-[1,1′-biphenyl]-2,6-diol]
[1]; AAC for two days
  Effect of accelerated aging conditions: did not lead to any physical changes
[1]; ground 1 hour at 30 Hz with 10 μL solvent, all samples
  Form by HT-XRPD analysis: Form A
[2]
  Form by HT-XRPD Before AAC: Oily
[3]; 1,2-dimethoxyethane, organic solvent or mixture
  solubility: > 100 mg/mL
[3]; 1,4-dioxane, organic solvent or mixture
  solubility: > 100 mg/mL
[3]; 1-propanol, organic solvent or mixture
  solubility: > 100 mg/mL
[3]; 2-butanone, organic solvent or mixture
  solubility: > 100 mg/mL
[3]; 10/90 water/ethanol, organic solvent or mixture
  solubility: > 100 mg/mL
[3]; 30/70 water/IPA, organic solvent or mixture
  solubility: > 20 mg/mL
[3]; 30/70 water/ethanol, organic solvent or mixture
  solubility: 20 to 70 mg/mL (≈ 63.6 to 223 mM)
[3]; 40/60 Water Methanol
  Solubility at RT: oil
[3]; 45/65 Water Methanol
  Solubility at RT: 3.4 mg/mL (≈ 10.8 mM)
[3]; 50/50 Water/Methanol
  Solubility at RT: 0.3 mg/mL (≈ 0.954 mM)
[3]; 50/50 water/IPA, aqueous with cosolvent or surfactant or cyclodextrin
  solubility: 10 to 20 mg/mL (≈ 31.8 to 63.6 mM)
[3]; 50/50 water/ethanol, aqueous with cosolvent or surfactant or cyclodextrin
  solubility: < 5 mg/mL
[3]; ACN, organic solvent or mixture
  solubility: > 100 mg/mL
[3]; CIP 100, aqueous with cosolvent or surfactant or cyclodextrin
  solubility: < 1 mg/mL
[3]; CIP 200, aqueous with cosolvent or surfactant or cyclodextrin
  solubility: < 1 mg/mL
[3]; DCM, organic solvent or mixture
  solubility: > 100 mg/mL
[3]; EtOAc, organic solvent or mixture
  solubility: > 100 mg/mL
[3]; EtOH, organic solvent or mixture
  solubility: > 100 mg/mL
[3]; IPA, organic solvent or mixture
  solubility: > 100 mg/mL
[3]; IPOAc, organic solvent or mixture
  solubility: > 100 mg/mL
[3]; MTBE, organic solvent or mixture
  solubility: > 100 mg/mL
[3]; MeOH, organic solvent or mixture
  solubility: > 100 mg/mL
[3]; MeTHF saturated with water, organic solvent or mixture
  solubility: > 100 mg/mL
[3]; MeTHF, organic solvent or mixture
  solubility: > 100 mg/mL
[3]; NMPO, organic solvent or mixture
  solubility: > 100 mg/mL
[3]; THF, organic solvent or mixture
  solubility: > 100 mg/mL
[3]; acetone, organic solvent or mixture
  solubility: > 100 mg/mL
[3]; anisole, organic solvent or mixture
  solubility: > 100 mg/mL
[3]; chloroform, organic solvent or mixture
  solubility: > 100 mg/mL
[3]; cumene, organic solvent or mixture
  solubility: > 100 mg/mL
[3]; cyclohexane, organic solvent or mixture
  solubility: > 100 mg/mL
[3]; diethyl ether, organic solvent or mixture
  solubility: > 100 mg/mL
[3]; ethyl formate, organic solvent or mixture
  solubility: > 100 mg/mL
[3]; heptane, organic solvent or mixture
  solubility: 64.6 mg/mL (≈ 205 mM)
[3]; isobutanol, organic solvent or mixture
  solubility: > 100 mg/mL
[3]; isooctane, organic solvent or mixture
  solubility: 43.9 mg/mL (≈ 140 mM)
[3]; methylcyclohexane, organic solvent or mixture
  solubility: > 100 mg/mL
[3]; n-decane, organic solvent or mixture
  solubility: 36.8 mg/mL (≈ 117 mM)
[3]; n-hexane, organic solvent or mixture
  solubility: > 100 mg/mL
[3]; p-xylene, organic solvent or mixture
  solubility: > 100 mg/mL
[3]; silicone oil, oil or lipid, Silcone oil
  solubility: 9.7 mg/mL (≈ 30.8 mM)
[3]; toluene, organic solvent or mixture
  solubility: > 100 mg/mL
[3]; water
  solubility: < 0.13 mg/mL
[4]; 0 month
  Chromatographic Purity: 4-Monobromo-cannabidiol: <0.03%
  Chromatographic Purity: Individual unspecified impurity: <0.03%
  Chromatographic Purity: Olivetol: <0.03%
  Chromatographic Purity: Sum of impurities: <0.05%
[4]; 1 month 5° C.
  Chromatographic Purity: 4-Monobromo-cannabidiol: <0.03%
  Chromatographic Purity: Individual unspecified impurity: <0.03%
  Chromatographic Purity: Olivetol: <0.03%
  Chromatographic Purity: Sum of impurities: <0.05%
[4]; 1 month 25° C./60% RH
  Chromatographic Purity: 4-Monobromo-cannabidiol: <0.03%
  Chromatographic Purity: Individual unspecified impurity: <0.03%
  Chromatographic Purity: Olivetol: <0.03%
  Chromatographic Purity: Sum of impurities: <0.05%
[4]; [6]
  Chromatographic Purity: 4-Monobromo-cannabidiol: <0.03%
  Chromatographic Purity: Individual unspecified impurity: <0.03%
  Chromatographic Purity: Olivetol: <0.03%
  Chromatographic Purity: Sum of impurities: <0.05%
[4]; 1.5 months 25° C./60% RH
  Chromatographic Purity: 4-Monobromo-cannabidiol: <0.03%
  Chromatographic Purity: Individual unspecified impurity: <0.03%
  Chromatographic Purity: Olivetol: <0.03%
  Chromatographic Purity: Sum of impurities: <0.05%
[4]; [7]
  Chromatographic Purity: 4-Monobromo-cannabidiol: <0.03%
  Chromatographic Purity: Individual unspecified impurity: <0.03%
  Chromatographic Purity: Olivetol: <0.03%
  Chromatographic Purity: Sum of impurities: <0.05%
[4]; [8]
  Chromatographic Purity: 4-Monobromo-cannabidiol: <0.03%
  Chromatographic Purity: Individual unspecified impurity: <0.03%
  Chromatographic Purity: Olivetol: <0.03%
  Chromatographic Purity: Sum of impurities: <0.05%
[4]; [9]
  Chromatographic Purity: 4-Monobromo-cannabidiol: <0.03%
  Chromatographic Purity: Individual unspecified impurity: <0.03%
  Chromatographic Purity: Olivetol: <0.03%
  Chromatographic Purity: Sum of impurities: <0.05%
[4]; [10]
  Chromatographic Purity: 4-Monobromo-cannabidiol: <0.03%
  Chromatographic Purity: Individual unspecified impurity: <0.03%
  Chromatographic Purity: Olivetol: <0.03%
  Chromatographic Purity: Sum of impurities: <0.05%
[4]; 6 months 25° C./60% RH
  Chromatographic Purity: 4-Monobromo-cannabidiol: <0.03%
  Chromatographic Purity: Individual unspecified impurity: <0.03%
  Chromatographic Purity: Olivetol: <0.03%
  Chromatographic Purity: Sum of impurities: <0.05%
[4]; [11]
  Chromatographic Purity: 4-Monobromo-cannabidiol: <0.03%
  Chromatographic Purity: Individual unspecified impurity: <0.03%
  Chromatographic Purity: Olivetol: <0.03%
  Chromatographic Purity: Sum of impurities: <0.05%
[5]; 1,4-Dioxane/Water (80/20)
  Dissolved at start: Yes
  Solids after T profile: No
[5]; 40° C./75% RH for two days
  Effect of accelerated aging conditions: no effect on the physical appearance
[5]; Acetone/2,2,4-Trimethylpentane
  Dissolved at start: Yes
  Solids after T profile: No
[5]; Acetone/Water (80/20)
  Dissolved at start: Yes
  Solid form by HT-XRPD Evaporation of ML Before: Oily
  Solids after T profile: No
[5]; Acetonitrile/Water (80/20)
  Dissolved at start: Yes
  Solids after T profile: No
[5]; Chloroform/Hexane (50/50)
  Dissolved at start: Yes
  Solids after T profile: No
[5]; Ethanol/2,2,4-Trimethylpentane
  Dissolved at start: Yes
  Solids after T profile: No
[5]; Ethyl formate/Decane
  Dissolved at start: Yes
  Solid form by HT-XRPD Evaporation of ML Before: Oily
  Solids after T profile: No
[5]; Heptane/Pentane (50/50)
  Dissolved at start: Yes
  Solids after T profile: Yes
[5]; Isopropanol/Decane (50/50)
  Dissolved at start: Yes
  Solids after T profile: No
[5]; Tetrahydrofuran/Water (80/20)
  Dissolved at start: Yes
  Solid form by HT-XRPD Evaporation of ML Before: Oily
  Solids after T profile: No
[5]; heptane/pentane, crash cooling, −20° C. for 48 hours
  Polymorphic form of precipitated solid: same polymorphic form as the starting material Form A
